Starred links: 1 amine or outer side, 2 acyl side, 3 side chain; linkers in the order of their positions; H or OH if unused. Non-standard residues stand in square brackets, D forms with d. Residues, ends and D or L forms follow the SMILES beside them. Groups on a side chain read outwards from the residue. *: point of attachment. X1 = NC(N)=NCCCC(CN([C@@H](CCCN=C(N)N)C(=O)[*:2])[*:1])N[*:3]; X3 = NCCCCC(CN([C@@H](CCCN=C(N)N)C(=O)[*:2])[*:1])N[*:3]; Tle = CC(C)(C)[C@H](N)C(=O)O; X2 = NCCNCC(CNCCN)C(=O)*
How the values were obtained:
[1] = biological target: T1, Neurotensin receptor type 1 (Homo sapiens, UniProt P30989); assay: Displacement of [125I]Tyr3-NT from human NTS1R expressed in HT29 cells; assay type: cell-based, HT-29
[2] = biological target: T1, Neurotensin receptor type 1; assay: Displacement of [125I]Tyr3-NT from human NTS1R expressed in WiDr cells; assay type: cell-based
[3] = biological target: T1, Neurotensin receptor type 1; assay: Displacement of [125I]Tyr3-NT from NTS1R in human exocrine ductal pancreatic carcinoma

T1 sequence (P30989 whole entry): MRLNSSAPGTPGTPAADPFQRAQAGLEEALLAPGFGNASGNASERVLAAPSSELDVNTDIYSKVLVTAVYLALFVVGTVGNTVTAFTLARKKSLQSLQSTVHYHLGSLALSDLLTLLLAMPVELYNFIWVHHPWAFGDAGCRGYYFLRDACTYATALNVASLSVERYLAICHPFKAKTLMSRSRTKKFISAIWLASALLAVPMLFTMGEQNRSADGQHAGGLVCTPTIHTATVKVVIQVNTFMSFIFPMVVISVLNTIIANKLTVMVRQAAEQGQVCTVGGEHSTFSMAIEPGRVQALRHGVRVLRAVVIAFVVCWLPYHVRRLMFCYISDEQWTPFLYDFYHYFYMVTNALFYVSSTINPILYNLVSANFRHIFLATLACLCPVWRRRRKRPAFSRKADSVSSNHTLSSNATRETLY

| IC50 [1] | IC50 [2] | IC50 [3] | Structure (SMILES) |
| --- | --- | --- | --- |
| 0.32 nM |  |  | CC[C@H](C)[C@H](NC(=O)[C@H](Cc1ccc(O)cc1)NC(=O)[C@@H]1CCCN1C(=O)[C@H](CCCN=C(N)N)NC(=O)[C@H](CCCN=C(N)N)NC(=O)CNC(=O)C(CNCCN)CNCCN)C(=O)N[C@@H](CC(C)C)C(=O)O [Demotensin 1] (X2-GRRPYIL-OH) |
| 1.5 nM | 0.66 nM |  | CC(C)C[C@H](NC(=O)[C@@H](NC(=O)[C@H](Cc1ccc(O)cc1)NC(=O)[C@@H]1CCCN1C(=O)[C@H](CCCN=C(N)N)NCC(CCCCN)NC(=O)CNC(=O)C(CNCCN)CNCCN)C(C)(C)C)C(=O)O (stereo partly drawn) [DEMOTENSIN 3] (H-[X3]([Gly-X2])PY[Tle]L-OH) |
| 0.41 nM | 0.18 nM |  | CC[C@H](C)[C@H](NC(=O)[C@H](Cc1ccc(O)cc1)NC(=O)[C@@H]1CCCN1C(=O)[C@H](CCCN=C(N)N)NCC(CCCCN)NC(=O)CNC(=O)C(CNCCN)CNCCN)C(=O)N[C@@H](CC(C)C)C(=O)O (stereo partly drawn) [DEMOTENSIN 2] (H-[X3]([Gly-X2])PYIL-OH) |
| 0.85 nM | 0.51 nM | 2.9 nM | CC(C)C[C@H](NC(=O)[C@@H](NC(=O)[C@H](Cc1ccc(O)cc1)NC(=O)[C@@H]1CCCN1C(=O)[C@H](CCCN=C(N)N)NCC(CCCN=C(N)N)NC(=O)CNC(=O)C(CNCCN)CNCCN)C(C)(C)C)C(=O)O (stereo partly drawn) [DEMOTENSIN 4] (H-[X1]([Gly-X2])PY[Tle]L-OH) |

Source: ChEMBL document CHEMBL1138946, “Toward stable N4-modified neurotensins for NTS1-receptor-targeted tumor imaging with 99mTc” (J Med Chem, 2006)
